Measurements from patent US12162876B2, “Indazole kinase inhibitor and use thereof” (Tarapeutics Science Inc., priority 2018, dated 2024).
Read-outs that look alike come from different tables or passages of the source.

Key:
TEL-cKIT-BaF3 = experiment: Cell proliferation (CCK-8, 72 h), TEL-cKIT-BaF3; type: cell-based; conditions: Mus musculus, BaF3 expressing wild-type C-KIT kinase
Source text: (§1) In this example, human gastrointestinal stromal tumor cell line GIST-T1 (expressing wild-type C-KIT gene) (purchased from Cosmo Bio Co., Ltd. (Japan)), human gastrointestinal stromal tumor cell line GIST-T1-T670I (expressing C-KIT-T670I mutant gene) (constructed by our laboratory with CRISPR technology), mouse […] BaF3 (purchased from ATCC) were used. In addition, in this Example, mouse Tel-cKit-BaF3 (stably expressing C-KIT wild-type kinase), mouse Tel-cKit/T670I-BaF3 (stably expressing cKIT T670I mutant kinase), mouse Tel-PDGFRα-BaF3 (stably expressing PDGFRα kinase), mouse Tel-PDGFRβ-BaF3 (stably expressing PDGFRβ kinase), mouse Tel-VEGFR2-BaF3 (stably expressing VEGFR2 kinase), mouse Tel-FLT3-BaF3 (stably expressing FLT3 kinase) were also used. The above cell lines were all constructed by our laboratory. The construction method was as follows: the human C-KIT, C-KIT T670I, PDGFRα, PDGFRβ, VEGFR2, FLT3 kinase region sequences were amplified by PCR respectively and inserted into MSCV-Puro vector (purchased from Clontech) with N-terminal TEL fragment and/or NPM fragment and/or TPR fragment respectively, which was stably transferred into mouse BaF3 cells by retroviral method, and IL-3 growth factor was removed, and finally the cell lines in which protein was transferred depending on C-KIT, C-KIT/T670I, PDGFRα, PDGFRβ, VEGFR2, FLT3 were obtained. The GIST-T1-T670I (expressing C-KIT-T670I mutant gene) cell line was constructed by our laboratory. The construction method was as follows: the sgRNA targeting near the T670 site of the KIT gene was designed by the CRISPR design tool of the Zhang Feng Laboratory of the Massachusetts Institute of Technology (URL: crispr.mit.edu) and cloned into pSpCas9(BB)-2A-Puro vector (Addgene, USA); the obtained vector and a single-stranded oligonucleotide with T670I mutation near the T670 site were co-transfected into the cells, and after antibiotic selection, they were diluted and cultured in a single cell in a 96-well plate; the T670 site of the cells was sequenced and verified by the Sanger sequencing method.

TEL-VEGFR2-BaF3 = experiment: Cell proliferation (CCK-8, 72 h), TEL-VEGFR2-BaF3; type: cell-based; conditions: Mus musculus, BaF3 expressing VEGFR2 kinase
Source text: as §1

TEL-cKIT/T670I-BaF3 [1] = experiment: TEL-cKIT/T670I-BaF3 cell tumor transplantation mouse model; type: in vivo
Experimental: (§2) (1) 4-6 weeks old Bal b/c female mice were purchased from Beijing Weitong Lihua Experimental Animal Co., Ltd. and were reared in SPF-level laboratories. Drinking water and litter were sterilized by autoclaving. All operations on mice were performed under sterile conditions.
(§3) (2) On day 0, about 5×10^6 TEL-cKIT/T670I-BaF3 or 5×10^6 GIST-T1-T670I cells were injected subcutaneously on the left back of all mice, respectively.
(§4) (3) For the mouse model of TEL-cKIT/T670I-BaF3, starting from day 6, the corresponding mice were orally administered every day methyl cellulose (HKI) vehicle (5 mice); […]; sunitinib (purchased from MedChemExpress, China) at a dose of 40 mg/kg mouse weight (5 mice). For the mouse model of GIST-T1-T670I, starting from day 15, the corresponding mice were orally administered every day methyl cellulose (HKI) vehicle (5 mice); Compound 9 at a dose of 20 mg/kg, 30 mg/kg, 40 mg/kg (5 mice each); sunitinib at a dose of 40 mg/kg mouse weight (5 mice).
(§5) (4) Starting from day 6 (the mouse model of TEL-cKIT/T670I-BaF3) and day 15 (the mouse model of GIST-T1-T670I), the length/width of the subcutaneous tumors was measured with a vernier caliper every day, the body weight of the mice was recorded every day, and the effect of compound 9 on the body weight of the mice was determined respectively.
(§6) (5) The growth trend of […] tumors was calculated, with the calculation method of tumor volume: length×width×width/2 mm^3.

GIST-T1 = experiment: Cell proliferation (CCK-8, 72 h), GIST-T1; type: cell-based; conditions: Homo sapiens, GISTT1, GIST-T1 (wild-type C-KIT gene)
Source text: as §1

TEL-cKIT/T670I-BaF3 [2] = experiment: Cell proliferation (CCK-8, 72 h), TEL-cKIT/T670I-BaF3; type: cell-based; conditions: Mus musculus, read-out: GI50 TEL-cKIT/T670I-BaF3
Source text: as §1

BaF3 = experiment: Cell proliferation (CCK-8, 72 h), parental BaF3; type: cell-based; conditions: Mus musculus, parental BaF3 cells
Source text: as §1

TEL-FLT3-BaF3 = experiment: Cell proliferation (CCK-8, 72 h), TEL-FLT3-BaF3; type: cell-based; conditions: Mus musculus, BaF3 expressing FLT3 kinase
Source text: as §1

GIST-T1-T670I [3] = experiment: GIST-T1-T670I cell tumor transplantation mouse model; type: in vivo; conditions: for tumor inhibition rate: 40 mg/kg oral daily
Experimental: as §2, §3, §4, §5, §6

GIST-T1-T670I [4] = experiment: Cell proliferation (CCK-8, 72 h), GIST-T1-T670I; type: cell-based; conditions: Homo sapiens, GIST-T1-T670I (C-KIT-T670I mutant, Imatinib-resistant)
Source text: as §1

TEL-PDGFRα-BaF3 = experiment: Cell proliferation (CCK-8, 72 h), TEL-PDGFRα-BaF3; type: cell-based; conditions: Mus musculus, BaF3 expressing PDGFRα kinase
Source text: as §1

TEL-PDGFRβ-BaF3 = experiment: Cell proliferation (CCK-8, 72 h), TEL-PDGFRβ-BaF3; type: cell-based; conditions: Mus musculus, BaF3 expressing PDGFRβ kinase
Source text: as §1

[5] = BaF3 expressing cKIT T670I mutant kinase, 72 h, CCK-8

| Compound | GI50 (TEL-cKIT-BaF3) [nM] | GI50 (TEL-VEGFR2-BaF3) [nM] | tumor inhibition rate (TEL-cKIT/T670I-BaF3 [1]; 40 mg/kg oral daily, with increasing days of treatment) [%] | tumor inhibition rate (TEL-cKIT/T670I-BaF3 [1]; 100 mg/kg oral daily, day 11 after administration) [%] | effect on the body weight of mice (TEL-cKIT/T670I-BaF3 [1]; oral daily) | GI50 (GIST-T1) [nM] | GI50 (TEL-cKIT/T670I-BaF3 [2]; BaF3, 72 h) [nM] | GI50 (BaF3) [nM] | GI50 (TEL-FLT3-BaF3) [nM] | tumor inhibition rate (GIST-T1-T670I [3]; day 28 after administration) [%] | tumor inhibition rate (GIST-T1-T670I [3]; with increasing days of treatment) [%] | effect on the body weight of mice (GIST-T1-T670I [3]; oral daily) | GI50 (GIST-T1-T670I [4]) [nM] | GI50 (TEL-PDGFRα-BaF3) [nM] | GI50 (TEL-cKIT/T670I-BaF3 [2]; [5]) [nM] | GI50 (TEL-PDGFRβ-BaF3) [nM] |
| --- | --- | --- | --- | --- | --- | --- | --- | --- | --- | --- | --- | --- | --- | --- | --- | --- |
| Cc1nc(NC(=O)CN2CCN(C)CC2)sc1-c1ccc2c(/C=C/c3ccccn3)n[nH]c2c1 [Compound 9, (E)-N-(4-methyl-5-(3-(2-(pyridin-2-yl)vinyl)-1H-indazol-6-yl)thiazol-2-yl)-2-(4-methylpiperazin-1-yl)acetamide] | 923 | 180 | ≤ 80 | 100 | no effect | 19 | 9 | 1400 | 1 | 84.3 | ≤ 80 | no effect | 39 | – | – | – |
| Cc1nc(NC(=O)CC2CCNCC2)sc1-c1ccc2c(/C=C/c3ccccn3)n[nH]c2c1 [Compound 11, (E)-N-(4-methyl-5-(3-(2-(pyridin-2-yl)vinyl)-1H-indazol-6-yl)thiazol-2-yl)-2-(piperidin-4-yl)acetamide] | 480 | 350 | – | – | – | – | – | 980 | 48 | – | – | – | – | 1.3 | 38 | 3.9 |
| Cc1ccc(NC(=O)c2ccc(CN3CCN(C)CC3)cc2)cc1Nc1nccc(-c2cccnc2)n1 [Imaitnib, Imatinib, reference compound] | – | – | – | – | – | 10 | – | – | – | – | – | – | > 10000 | – | – | – |
| Cc1nc(NC(=O)c2ccc(CN3CCN(C)CC3)cc2)sc1-c1ccc2c(/C=C/c3ccccn3)n[nH]c2c1 [Compound 1, (E)-N-(4-methyl-5-(3-(2-(pyridin-2-yl)vinyl)-1H-indazol-6-yl)thiazol-2-yl)-4-((4-methylpiperazin-1-yl)methyl)benzamide] | 24 | 16 | – | – | – | – | – | 58 | < 1 | – | – | – | – | 1 | 3 | 3 |
| Cc1nc(NC(=O)Cc2cccc(C(F)(F)F)c2)sc1-c1ccc2c(/C=C/c3ccccn3)n[nH]c2c1 [Compound 3, (E)-N-(4-methyl-5-(3-(2-(pyridin-2-yl)vinyl)-1H-indazol-6-yl)thiazol-2-yl)-2-(3-(trifluoromethyl)phenyl)acetamide] | 35 | 13 | – | – | – | – | – | 2310 | 0.1 | – | – | – | – | 2 | 28 | 12 |
| CC(=O)Nc1ncc(-c2ccc3c(/C=C/c4ccccn4)n[nH]c3c2)s1 [Compound 5, (E)-N-(5-(3-(2-(pyridin-2-yl)vinyl)-1H-indazol-6-yl)thiazol-2-yl)acetamide] | 425 | 38 | – | – | – | – | – | 2920 | < 1 | – | – | – | – | 2 | 9 | 11 |
| Cc1nc(NC(=O)Nc2cccc(C(F)(F)F)c2)sc1-c1ccc2c(/C=C/c3ccccn3)n[nH]c2c1 [Compound 29, (E)-1-(4-methyl-5-(3-(2-(pyridin-2-yl)vinyl)-1H-indazol-6-yl)thiazol-2-yl)-3-(3-(trifluoromethyl)phenyl)urea] | 25 | 4 | – | – | – | – | – | 105 | 2 | – | – | – | – | < 1 | 38 | < 1 |
| CC(=O)Nc1nc(C)c(-c2ccc3c(/C=C/c4ccccn4)n[nH]c3c2)s1 [Compound 30, (E)-N-(4-methyl-5-(3-(2-(pyridin-2-yl)vinyl)-1H-indazol-6-yl)thiazol-2-yl) acetamide] | 47 | 12 | – | – | – | – | – | 1460 | 0.3 | – | – | – | – | 1 | 8 | 1 |
| Cc1nc(NC(=O)Cc2cccc3ccccc23)sc1-c1ccc2c(/C=C/c3ccccn3)n[nH]c2c1 [Compound 7, (E)-N-(4-methyl-5-(3-(2-(pyridin-2-yl)vinyl)-1H-indazol-6-yl)thiazol-2-yl)-2-(naphthalene-1-yl)acetamide] | 191 | 15 | – | – | – | 32 | – | 3690 | 3 | – | – | – | 65 | 2.9 | 94 | – |
